Experimental data from ChEMBL document CHEMBL5104211, “Design and synthesis of bile acid derivatives and their activity against colon cancer” (RSC Med Chem, 2022).
Each block holds one compound with its values, some of them ahead of it. Calls of active or inactive are those of the source. The calls are words filed in the database; no cut-off is given here.

Experiments:
HCT-116 [1] = test: […] activity in human HCT-116 cells assessed as upregulation of cleaved caspase-3 level at 30 micromol/L incubated for 48 hrs by Western blot analysis; format: functional, cell-based; conditions: dose 30.0 µmol/L
HCT-116 [2] = test: Induction of apoptosis in human HCT-116 cells assessed as retraction of the cytoplasm at 30 micromol/L incubated for 48 hrs by Giemsa staining based fluorescence microscopy; format: functional, cell-based; conditions: dose 30.0 µmol/L
HCT-116 [3] = test: Inhibition of cell migration in human HCT-116 cells at 20 micromol/L and measured after 24 hrs by crystal violet staining based transwell assay; format: functional; conditions: dose 20.0 µmol/L
HCT-116 [4] = test: Anticancer activity against human HCT-116 cells assessed as decrease in size of colonies at 25 micromol/L and measured after 48 hrs by crystal violet dye based colony formation assay; format: functional, cell-based; conditions: dose 25.0 µmol/L
SW480 = test: Anticancer activity against human SW480 cells assessed as inhibition of cell proliferation by MTT assay; format: functional, cell-based
HCT-116 [5] = test: Induction of apoptosis in human HCT-116 cells assessed as late apoptotic cells at 30 micromol/L incubated for 48 hrs by annexin V-FITC and propidium iodide staining based flow cytometry analysis (reference value: 7.13%); format: functional; conditions: dose 30 µmol/L, at 30 µM
HCT-116 [6] = test: Induction of mitochondrial membrane potential loss in human HCT-116 cells and measured after 48 hrs by TRME staining based flow cytometric analysis (reference value: 97.52%); format: functional
HCT-116 [7] = test: Anticancer activity against human HCT-116 cells assessed as inhibition of cell proliferation at 25 micromol/L incubated for 24 hrs by MTT assay; format: functional; conditions: HCT-116, 24 h, dose 25 µmol/L
HCT-116 [8] = test: Induction of apoptosis in human HCT-116 cells assessed as unclear cell rupture edges at 30 micromol/L incubated for 48 hrs by Giemsa staining based fluorescence microscopy; format: functional; conditions: dose 30.0 µmol/L
HCT-116 [9] = test: Anticancer activity against human HCT-116 cells assessed as inhibition of cell proliferation at 30 micromol/L incubated for 24 hrs by MTT assay; format: functional; conditions: HCT-116, 24 h, dose 30 µmol/L
RKO = test: Anticancer activity against human RKO cells assessed as inhibition of cell proliferation by MTT assay; format: functional, cell-based
HCT-116 [10] = test: Induction of apoptosis in human HCT-116 cells assessed as retraction of the nucleus at 30 micromol/L incubated for 48 hrs by Giemsa staining based fluorescence microscopy; format: functional, cell-based; conditions: dose 30.0 µmol/L
HCT-116 [11] = test: Induction of apoptosis in human HCT-116 cells assessed as early apoptotic cells at 30 micromol/L incubated for 48 hrs by annexin V-FITC and propidium iodide staining based flow cytometry analysis (reference value: 2.69%); format: functional; conditions: dose 30 µmol/L, at 30 µM
HCT-116 [12] = test: Induction of apoptosis in human HCT-116 cells assessed as apoptotic body formation at 30 micromol/L incubated for 48 hrs by Giemsa staining based fluorescence microscopy; format: functional, cell-based; conditions: dose 30.0 µmol/L
SK-HEP1 = test: Anticancer activity against human SK-HEP1 cells assessed as inhibition of cell proliferation by MTT assay; format: functional, cell-based
LoVo = test: Anticancer activity against human LoVo cells assessed as inhibition of cell proliferation by MTT assay; format: functional, cell-based
HCT-116 [13] = test: Anticancer activity against human HCT-116 cells assessed as inhibition of cell proliferation by MTT assay; format: functional, cell-based
MGC-803 = test: Anticancer activity against human MGC-803 cells assessed as inhibition of cell proliferation by MTT assay; format: functional, cell-based
HCT-116 [14] = test: Induction of apoptosis in human HCT-116 cells assessed as viable cells at 30 micromol/L incubated for 48 hrs by annexin V-FITC and propidium iodide staining based flow cytometry analysis (reference value: 89.29%); format: functional; conditions: HCT-116, 48 h, dose 30 µmol/L, read-out: Activity
HCT-116 [15] = test: […] activity in human HCT-116 cells assessed as downregulation of Bcl-2 level at 30 micromol/L incubated for 48 hrs by Western blot analysis; format: functional, cell-based; conditions: dose 30.0 µmol/L
HCT-116 [16] = test: Anticancer activity against human HCT-116 cells assessed as decrease in number of colonies at 25 micromol/L and measured after 48 hrs by crystal violet dye based colony formation assay; format: functional, cell-based; conditions: dose 25.0 µmol/L
HCT-116 [17] = test: Anticancer activity against human HCT-116 cells assessed as inhibition of cell proliferation at 5 to 50 micromol/L incubated for 24 hrs by MTT assay; format: functional, cell-based; conditions: dose 5-50 µmol/L, DDE = dose-dependent effect
A549 = test: Anticancer activity against human A549 cells assessed as inhibition of cell proliferation by MTT assay; format: functional, cell-based
HCT-116 [18] = test: Anticancer activity in human HCT-116 cells assessed as downregulation of phosphorylated STAT3 level at 30 micromol/L incubated for 48 hrs by Western blot analysis; format: functional, cell-based; conditions: dose 30.0 µmol/L
HCT-116 [19] = test: Induction of apoptosis in human HCT-116 cells assessed as contraction of cell volume at 30 micromol/L incubated for 48 hrs by Giemsa staining based fluorescence microscopy; format: functional; conditions: dose 30.0 µmol/L
HCT-116 [20] = test: Induction of cell cycle arrest in human HCT-116 cells assessed as accumulation G2/M phase at 25 micromol/L and measured after 48 hrs by propidium iodide staining based flow cytometry analysis (Rvb= 11%); format: functional; conditions: dose 25 µmol/L, at 25 µM
HT-29 = test: Anticancer activity against human HT-29 cells assessed as inhibition of cell proliferation by MTT assay; format: functional, cell-based
HCT-116 [21] = test: Induction of ROS generation in human HCT-116 cells assessed as increase in intracellular ROS level incubated for 48 hrs by DCFH-DA staining based flow cytometric analysis (Rvb=73.65%); format: functional
[22] = Cytotoxicity against human WI-38 cells assessed as inhibition of cell proliferation by MTT assay; format: toxicity, cell-based
HCT-116 [23] = test: Inhibition of cell invasion in human HCT-116 cells at 20 micromol/L and measured after 24 hrs by crystal violet staining based transwell assay; format: functional; conditions: HCT-116, 24 h, dose 20 µmol/L
HCT-116 [24] = test: Induction of apoptosis in human HCT-116 cells assessed as necrotic cells at 30 micromol/L incubated for 48 hrs by annexin V-FITC and propidium iodide staining based flow cytometry analysis (reference value: 0.88%); format: functional; conditions: dose 30 µmol/L, at 30 µM
HCT-116 [25] = test: Anticancer activity against human HCT-116 cells assessed as inhibition of cell proliferation at 20 to 40 micromol/L incubated for 24 to 72 hrs by MTT assay; format: functional, cell-based; conditions: dose 20-40 µmol/L, time 24-72 hrs, TDE = time-dependent effect
Huh-7 = test: Anticancer activity against human Huh-7 cells assessed as inhibition of cell proliferation by MTT assay; format: functional, cell-based
RAW264.7 [26] = test: Anti-inflammatory activity against mouse RAW264.7 cells assessed as inhibition of LPS-induced NO production at 25 micromol/L incubated for 24 hrs in presence of LPS by Griess reagent-based assay; format: functional; conditions: RAW264.7, 24 h, dose 25 µmol/L
RAW264.7 [27] = test: Anti-inflammatory activity against mouse RAW264.7 cells assessed as downregulation of LPS-induced TNF-alpha level at 25 micromol/L incubated for 24 hrs in presence of LPS by ELISA; format: functional; conditions: dose 25 µmol/L, at 25 µM
RAW264.7 [28] = test: Anti-inflammatory activity against mouse RAW264.7 cells assessed as inhibition of LPS-induced NO production incubated for 24 hrs in presence of LPS by Griess reagent-based assay; format: functional, cell-based; conditions: RAW264.7, 24 h
RAW264.7 [29] = test: Anti-inflammatory activity against mouse RAW264.7 cells assessed as inhibition of LPS-induced NO production at 10 micromol/L incubated for 24 hrs in presence of LPS by Griess reagent-based assay; format: functional; conditions: RAW264.7, 24 h, dose 10 µmol/L

- IC50 (SW480): 23.6 µM
- IC50 (SK-HEP1): 38.6 µM
- IC50 (LoVo): 22.8 µM
- IC50 (HCT-116 [13]): 27.4 µM
- IC50 (MGC-803): 31.5 µM
- IC50 (A549): 79.8 µM
- IC50 (HT-29): 27.3 µM
- IC50 (Huh-7): 68 µM
SMILES: COC(=O)[C@H](CCSC)NC(=O)CC[C@@H](C)[C@H]1CC[C@H]2[C@@H]3[C@H](O)C[C@@H]4C[C@H](O)CC[C@]4(C)[C@H]3CC[C@]12C
- Activity (HCT-116 [1]): Active
- Activity (HCT-116 [2]): Active
- inhibition (HCT-116 [3]): Active
- Activity (HCT-116 [4]): Active
- Activity (HCT-116 [5]): 52.35%
- Activity (HCT-116 [6]): 79.54%
- inhibition at 25 µM (HCT-116 [7]): 30%
- Activity (HCT-116 [8]): Active
- inhibition at 30 µM (HCT-116 [9]): 70%
- IC50 (RKO): 27.3 µM
- Activity (HCT-116 [10]): Active
- Activity (HCT-116 [11]): 3.86%
- Activity (HCT-116 [12]): Active
- viability at 30 µM (HCT-116 [14]): 43.1%
- Activity (HCT-116 [15]): Active
- Activity (HCT-116 [16]): Active
- inhibition (HCT-116 [17]): Dde
- Activity (HCT-116 [18]): Active
- Activity (HCT-116 [19]): Active
- Activity (HCT-116 [20]): 72.91%
- Activity (HCT-116 [21]): 86.51%
- IC50 [22]: > 500 µM
- inhibition at 20 µM (HCT-116 [23]): 50%
- Activity (HCT-116 [24]): 0.71%
- inhibition (HCT-116 [25]): Tde

- IC50 (SW480): 134 µM
- IC50 (SK-HEP1): > 200 µM
- IC50 (LoVo): 59.8 µM
- IC50 (HCT-116 [13]): 50.3 µM
- IC50 (MGC-803): 82.3 µM
- IC50 (A549): 124 µM
- IC50 (RAW264.7 [28]): 12.1 µM
- IC50 (HT-29): 45.4 µM
- IC50 (Huh-7): > 200 µM
SMILES: C[C@H](CCC(=O)OCc1cc(O)cc(O)c1)[C@H]1CC[C@H]2[C@@H]3CC[C@@H]4C[C@H](O)CC[C@]4(C)[C@H]3CC[C@]12C
- inhibition at 25 µM (RAW264.7 [26]): 82.1%
- IC50 (RKO): 42.9 µM
- Activity (RAW264.7 [27]): 50%
- inhibition at 10 µM (RAW264.7 [29]): 49%
- IC50 [22]: > 200 µM
